Experimental data from paper PMC6332036, “The Guareschi Pyridine Scaffold as a Valuable Platform for the Identification of Selective PI3K Inhibitors” (Molecules, 2015).

What was measured:
[1] = target: T1, PI3Kα (Homo sapiens, UniProt P42336); test: ADP-Glo luminescent lipid kinase assay, PI3Kα; assay type: biochemical; details: recombinant enzyme 30 ng, 10 μM ATP, 30 min, room temperature; standard error (SE)
T1 construct: purchased JenaBioscience PR-335
Procedure: (§1) All the synthesized compounds were then tested in vitro for their ability to inhibit the kinase activity of the PI3Kα, PI3Kβ, PI3Kγ, and PI3Kδ isoforms in a luminescent kinase assay (ADP-GloTM kinase assay) using purified, recombinant human enzymes and ATP. IC50 values were subsequently determined.
(§2) To evaluate the ability of each compound of formula (9a–h) to inhibit the lipid kinase activity of each PI3K isoform, 30 ng of PI3Kα, β, γ, and δ recombinant protein (purchased from JenaBioscience—Jena, Germany; PI3Kα #PR-335, PI3Kβ #PR-344, PI3Kγ #PR-343, PI3Kδ #PR-345) were incubated with at least five different concentrations (from 0.016 to 10 µM) of the compounds (9a–h). The phosphorylation reaction was then started by adding 10 μM of ATP, and 10 µg of lipid micelles containing the appropriate substrate phosphatidylinositol and the phosphatidylserine.
(§3) After 30 min of incubation (1 h for PI3Kβ recombinant protein) at room temperature, the reaction was stopped, and the amount of ADP metabolite was measured with a luminescent kinase assay, ADP-GloTM Kinase Assay (purchased from Promega—USA #V9101). The luminescent signal positively correlated with the formed ADP and, therefore, with the kinase activity. The percentage of kinase activity was calculated over the control samples, containing only dimethyl sulfoxide (DMSO). To derive the IC50 values for each assayed compound (9a–h), all data were plotted on a dose response curve (Graph Pad Software) and the IC50 was calculated by using the nonlinear regression fit (equation (log agonist) vs. response—Sigmoidal dose response). The IC50 was representative of two different experiments performed in triplicate.

[2] = target: T2, PI3Kβ (Homo sapiens, UniProt P42338); test: ADP-Glo luminescent lipid kinase assay, PI3Kβ; assay type: biochemical; details: recombinant enzyme 30 ng, 10 μM ATP, 1 h, room temperature; standard error (SE)
T2 construct: purchased JenaBioscience PR-344
T2 sequence (P42338 whole entry): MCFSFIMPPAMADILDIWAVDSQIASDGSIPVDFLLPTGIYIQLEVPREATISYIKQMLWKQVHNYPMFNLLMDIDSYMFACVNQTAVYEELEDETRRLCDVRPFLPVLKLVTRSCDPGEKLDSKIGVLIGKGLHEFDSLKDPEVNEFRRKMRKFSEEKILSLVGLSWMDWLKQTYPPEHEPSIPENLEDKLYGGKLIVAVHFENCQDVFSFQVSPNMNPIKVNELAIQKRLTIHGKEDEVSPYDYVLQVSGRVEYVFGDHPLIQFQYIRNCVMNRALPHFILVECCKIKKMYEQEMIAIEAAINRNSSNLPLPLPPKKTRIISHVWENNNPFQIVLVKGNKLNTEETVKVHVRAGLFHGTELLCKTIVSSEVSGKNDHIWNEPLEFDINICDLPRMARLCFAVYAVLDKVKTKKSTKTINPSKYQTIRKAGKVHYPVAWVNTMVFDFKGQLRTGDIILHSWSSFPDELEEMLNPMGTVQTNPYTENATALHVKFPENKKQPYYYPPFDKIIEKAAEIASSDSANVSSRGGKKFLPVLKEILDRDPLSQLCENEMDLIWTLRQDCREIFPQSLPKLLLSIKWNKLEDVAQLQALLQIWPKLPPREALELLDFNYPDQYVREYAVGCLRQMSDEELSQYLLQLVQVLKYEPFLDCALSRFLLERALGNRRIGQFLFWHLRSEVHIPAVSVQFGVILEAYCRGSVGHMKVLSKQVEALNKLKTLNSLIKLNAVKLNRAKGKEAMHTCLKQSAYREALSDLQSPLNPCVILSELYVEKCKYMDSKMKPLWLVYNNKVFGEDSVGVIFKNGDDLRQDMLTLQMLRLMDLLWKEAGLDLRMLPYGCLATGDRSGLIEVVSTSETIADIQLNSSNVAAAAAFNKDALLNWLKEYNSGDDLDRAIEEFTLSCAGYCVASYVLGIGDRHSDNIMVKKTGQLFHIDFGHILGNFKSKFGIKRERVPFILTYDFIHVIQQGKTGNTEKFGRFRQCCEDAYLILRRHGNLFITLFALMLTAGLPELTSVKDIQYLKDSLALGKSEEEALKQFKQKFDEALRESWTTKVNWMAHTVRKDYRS
T2 sequence (P27986 whole entry partner): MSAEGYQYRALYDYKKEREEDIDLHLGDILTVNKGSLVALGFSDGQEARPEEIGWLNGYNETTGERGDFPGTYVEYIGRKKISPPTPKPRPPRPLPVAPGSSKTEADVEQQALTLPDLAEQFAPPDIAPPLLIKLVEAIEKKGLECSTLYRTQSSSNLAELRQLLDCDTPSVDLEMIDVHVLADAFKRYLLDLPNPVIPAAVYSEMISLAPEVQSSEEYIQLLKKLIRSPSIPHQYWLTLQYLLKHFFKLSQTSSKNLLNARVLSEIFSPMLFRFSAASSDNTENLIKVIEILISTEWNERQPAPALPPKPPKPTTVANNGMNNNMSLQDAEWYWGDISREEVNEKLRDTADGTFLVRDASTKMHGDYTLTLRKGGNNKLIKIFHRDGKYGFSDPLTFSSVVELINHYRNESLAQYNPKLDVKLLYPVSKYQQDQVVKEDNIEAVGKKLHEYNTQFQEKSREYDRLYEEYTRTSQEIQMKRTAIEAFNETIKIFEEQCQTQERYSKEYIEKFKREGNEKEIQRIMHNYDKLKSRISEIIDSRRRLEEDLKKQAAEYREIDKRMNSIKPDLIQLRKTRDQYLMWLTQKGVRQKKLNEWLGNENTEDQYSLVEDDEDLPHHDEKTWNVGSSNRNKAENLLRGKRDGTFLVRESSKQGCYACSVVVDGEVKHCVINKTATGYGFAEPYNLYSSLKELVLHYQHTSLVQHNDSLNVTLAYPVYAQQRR
Procedure: as §1, §2, §3

[3] = target: T3, PI3Kγ (Homo sapiens, UniProt P48736); test: ADP-Glo luminescent lipid kinase assay, PI3Kγ; assay type: biochemical; details: recombinant enzyme 30 ng, 10 μM ATP, 30 min, room temperature; standard error (SE)
T3 construct: purchased JenaBioscience PR-343
T3 sequence (P48736 whole entry): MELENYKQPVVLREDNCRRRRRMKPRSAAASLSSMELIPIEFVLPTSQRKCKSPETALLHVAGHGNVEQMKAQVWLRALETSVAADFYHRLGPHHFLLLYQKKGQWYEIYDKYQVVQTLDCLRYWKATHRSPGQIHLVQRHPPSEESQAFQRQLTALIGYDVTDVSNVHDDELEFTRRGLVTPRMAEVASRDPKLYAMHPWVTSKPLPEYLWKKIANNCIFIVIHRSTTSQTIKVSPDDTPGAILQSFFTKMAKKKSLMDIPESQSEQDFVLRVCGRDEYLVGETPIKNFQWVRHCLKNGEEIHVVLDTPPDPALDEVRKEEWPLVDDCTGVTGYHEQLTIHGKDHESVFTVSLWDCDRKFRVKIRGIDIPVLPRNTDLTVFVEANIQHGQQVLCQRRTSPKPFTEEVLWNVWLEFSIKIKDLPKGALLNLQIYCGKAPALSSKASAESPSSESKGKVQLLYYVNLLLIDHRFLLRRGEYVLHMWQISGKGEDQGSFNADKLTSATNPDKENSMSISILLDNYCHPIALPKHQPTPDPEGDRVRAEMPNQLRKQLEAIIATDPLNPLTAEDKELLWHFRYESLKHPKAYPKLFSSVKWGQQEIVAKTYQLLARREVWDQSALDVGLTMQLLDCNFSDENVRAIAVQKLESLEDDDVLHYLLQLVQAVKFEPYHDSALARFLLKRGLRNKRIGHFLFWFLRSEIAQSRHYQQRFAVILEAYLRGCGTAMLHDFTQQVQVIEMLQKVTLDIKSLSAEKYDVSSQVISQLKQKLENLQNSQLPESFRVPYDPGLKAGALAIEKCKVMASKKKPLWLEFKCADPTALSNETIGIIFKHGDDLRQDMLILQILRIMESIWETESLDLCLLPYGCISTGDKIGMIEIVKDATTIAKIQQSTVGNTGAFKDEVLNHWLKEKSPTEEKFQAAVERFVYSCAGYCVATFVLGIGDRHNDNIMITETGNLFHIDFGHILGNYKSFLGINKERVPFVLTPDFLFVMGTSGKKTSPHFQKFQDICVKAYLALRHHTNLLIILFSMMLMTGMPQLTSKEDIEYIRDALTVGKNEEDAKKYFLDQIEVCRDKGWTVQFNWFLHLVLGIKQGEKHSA
Procedure: as §1, §2, §3

[4] = target: T4, PI3Kδ (Homo sapiens, UniProt O00329); test: ADP-Glo luminescent lipid kinase assay, PI3Kδ; assay type: biochemical; details: recombinant enzyme 30 ng, 10 μM ATP, 30 min, room temperature; standard error (SE)
T4 construct: purchased JenaBioscience PR-345
T4 sequence (O00329 whole entry): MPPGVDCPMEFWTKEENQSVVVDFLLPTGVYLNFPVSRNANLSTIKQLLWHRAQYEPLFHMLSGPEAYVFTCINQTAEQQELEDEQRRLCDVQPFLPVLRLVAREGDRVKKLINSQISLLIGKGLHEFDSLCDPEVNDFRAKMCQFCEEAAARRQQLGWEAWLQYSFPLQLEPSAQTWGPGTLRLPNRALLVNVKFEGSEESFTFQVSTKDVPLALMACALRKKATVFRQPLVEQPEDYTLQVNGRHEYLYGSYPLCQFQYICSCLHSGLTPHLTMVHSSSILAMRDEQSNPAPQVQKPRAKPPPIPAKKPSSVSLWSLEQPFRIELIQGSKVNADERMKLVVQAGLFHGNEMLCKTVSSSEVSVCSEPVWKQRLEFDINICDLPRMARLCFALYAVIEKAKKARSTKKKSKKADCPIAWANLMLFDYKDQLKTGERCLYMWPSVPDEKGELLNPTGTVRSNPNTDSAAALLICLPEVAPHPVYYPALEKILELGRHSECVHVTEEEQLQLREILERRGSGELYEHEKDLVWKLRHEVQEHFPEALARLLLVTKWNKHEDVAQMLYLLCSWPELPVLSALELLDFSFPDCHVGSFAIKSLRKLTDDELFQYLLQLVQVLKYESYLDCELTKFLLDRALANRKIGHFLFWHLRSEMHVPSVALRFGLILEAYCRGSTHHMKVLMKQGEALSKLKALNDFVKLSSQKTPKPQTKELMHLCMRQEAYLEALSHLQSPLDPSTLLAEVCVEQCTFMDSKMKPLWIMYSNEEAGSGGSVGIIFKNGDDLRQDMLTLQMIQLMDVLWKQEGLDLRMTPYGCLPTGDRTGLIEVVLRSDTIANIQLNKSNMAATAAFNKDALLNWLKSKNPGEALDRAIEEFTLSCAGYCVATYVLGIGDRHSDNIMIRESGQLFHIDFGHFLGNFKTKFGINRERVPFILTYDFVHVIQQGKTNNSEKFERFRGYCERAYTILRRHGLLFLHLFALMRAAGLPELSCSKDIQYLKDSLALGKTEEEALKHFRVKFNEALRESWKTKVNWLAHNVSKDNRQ
T4 sequence (P27986 whole entry partner): as the sequence (P27986 whole entry partner) above
Procedure: as §1, §2, §3

[5] = system: PI3Kα signaling pathway; test: Cell-based assay: P-Akt in insulin-stimulated NIH3T3 cells (Western blot); details: Mus musculus, 1.5 h pre-treatment, 5 min stimulation with 1 μM insulin, SE ± 0.6, read-out: IC50, residual P-Akt
Procedure: Subsequently, compound 9b was analyzed on cell-based assay in order to evaluate its ability to inhibit the PI3Kα signaling pathway on cells. It is well established that insulin signaling is mostly regulated by PI3Kα [29]. The activated insulin receptor triggers PI3Kα activity mainly by binding and phosphorylating adaptor proteins of the IRS (insulin receptor substrate) family. Once activated, PI3Kα produces the PtdIns(3,4,5)P3 lipid product, which in turn mediates the activation of downstream effectors such as Akt. Thus, phosphorylation of Akt results as a key event of the PI3Kα activation. […] A dose response curve and an IC50 value were determined.
NIH3T3 cells were cultured in […] (DMEM) (GIBCO-Thermo Fisher Scientific Inc., Waltham, MA, USA) supplemented with 10% Fetal Bovine Serum (FBS) (GIBCO-Thermo Fisher Scientific Inc.), 100 units/mL penicillin (GIBCO-Thermo Fisher Scientific Inc.), and 100 μg/mL streptomycin (GIBCO- Thermo Fisher Scientific Inc.). […] The P-Akt production is detected by Western blot analysis and quantified with ChemiDoc™ XRS system. From the absolute values, a percentage of residual P-Akt is calculated for each inhibitor concentration by using the control vehicle as 100%. […]

T1 sequence (P42336 whole entry): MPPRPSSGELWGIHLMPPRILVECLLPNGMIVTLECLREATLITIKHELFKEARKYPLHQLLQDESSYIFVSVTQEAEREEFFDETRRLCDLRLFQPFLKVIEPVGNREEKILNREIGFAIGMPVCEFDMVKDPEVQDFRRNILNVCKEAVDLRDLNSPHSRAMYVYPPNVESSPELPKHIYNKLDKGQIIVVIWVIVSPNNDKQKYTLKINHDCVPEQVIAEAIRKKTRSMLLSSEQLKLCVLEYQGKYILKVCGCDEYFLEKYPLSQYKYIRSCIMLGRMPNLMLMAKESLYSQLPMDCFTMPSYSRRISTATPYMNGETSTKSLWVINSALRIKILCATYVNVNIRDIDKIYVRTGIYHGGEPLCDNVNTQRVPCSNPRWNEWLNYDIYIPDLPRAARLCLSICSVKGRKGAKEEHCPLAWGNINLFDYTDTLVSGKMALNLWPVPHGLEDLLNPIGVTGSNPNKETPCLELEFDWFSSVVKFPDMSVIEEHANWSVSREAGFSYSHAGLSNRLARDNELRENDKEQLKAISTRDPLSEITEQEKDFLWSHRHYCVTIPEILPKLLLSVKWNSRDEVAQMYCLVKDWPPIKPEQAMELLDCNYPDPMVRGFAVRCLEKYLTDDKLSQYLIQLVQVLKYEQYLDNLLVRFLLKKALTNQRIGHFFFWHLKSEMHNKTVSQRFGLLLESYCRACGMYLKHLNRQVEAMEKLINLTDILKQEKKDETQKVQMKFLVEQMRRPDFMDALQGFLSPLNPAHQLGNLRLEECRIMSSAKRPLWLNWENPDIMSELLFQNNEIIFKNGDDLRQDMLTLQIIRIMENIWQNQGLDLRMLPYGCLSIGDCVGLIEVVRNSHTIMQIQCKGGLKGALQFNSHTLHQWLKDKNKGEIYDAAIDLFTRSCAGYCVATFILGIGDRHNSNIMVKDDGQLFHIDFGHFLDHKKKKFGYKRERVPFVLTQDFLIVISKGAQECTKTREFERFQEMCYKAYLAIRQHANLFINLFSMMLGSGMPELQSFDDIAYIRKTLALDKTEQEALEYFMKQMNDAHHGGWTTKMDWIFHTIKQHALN
T1 sequence (P27986 whole entry partner): as the sequence (P27986 whole entry partner) above

SMILES | IC50 [1] | IC50 [2] | IC50 [3] | IC50 [4] | melting point | IC50 [5]
N#Cc1c(-c2ccccc2)cc(N2CCOCC2)nc1-c1cccc(O)c1 [Compound 9a] | 0.13 µM | 1.99 µM | > 10 µM | 1.22 µM | 221 to 223 °C (dec.) | –
N#Cc1c(-c2ccc(Oc3ccccc3)cc2)cc(N2CCOCC2)nc1-c1cccc(O)c1 [Compound 9b] | 0.63 µM | > 10 µM | > 10 µM | > 10 µM | 240 to 242 °C | 2.8 µM
COc1ccc(-c2cc(N3CCOCC3)nc(-c3cccc(O)c3)c2C#N)cc1 [Compound 9c] | 1.79 µM | > 10 µM | 2.18 µM | 1.37 µM | 216 to 217 °C | –
COc1cccc(-c2cc(N3CCOCC3)nc(-c3cccc(O)c3)c2C#N)c1 [Compound 9d] | 0.63 µM | 2.34 µM | 1.64 µM | 1.09 µM | 208 to 209 °C (dec.) | –
COc1ccc(-c2cc(N3CCOCC3)nc(-c3cccc(O)c3)c2C#N)cc1OC [Compound 9e] | 0.83 µM | 6.48 µM | 2.91 µM | 0.9 µM | 142 to 144 °C | –
Cc1ccc(-c2cc(N3CCOCC3)nc(-c3cccc(O)c3)c2C#N)cc1C [Compound 9f] | > 10 µM | > 10 µM | 4.43 µM | 1.33 µM | 117 to 120 °C (dec.) | –
N#Cc1c(-c2ccncc2)cc(N2CCOCC2)nc1-c1cccc(O)c1 [Compound 9g] | 1.23 µM | > 10 µM | 1.56 µM | 0.85 µM | 290 to 292 °C (dec.) | –
N#Cc1c(-c2cccnc2)cc(N2CCOCC2)nc1-c1cccc(O)c1 [Compound 9h] | 0.98 µM | > 10 µM | 2.43 µM | 0.71 µM | 239 to 242 °C (dec.) | –
Cc1cc(N2CCOCC2)nc(-c2cccc(O)c2)c1C#N [Compound 10, 2-(3-Hydroxyphenyl)-6-morpholino-4-methylnicotinonitrile] | 1.18 µM | 1.55 µM | 1.05 µM | 0.42 µM | 195 to 197 °C | –
